From BindingDB's records for doi:10.1124/jpet.104.066688 (Acadia Pharmaceuticals, 2004) come the findings set out here.

The target in this assay is T1, 5-hydroxytryptamine receptor 2C (Homo sapiens, UniProt P28335).
T1 sequence (P28335 whole entry): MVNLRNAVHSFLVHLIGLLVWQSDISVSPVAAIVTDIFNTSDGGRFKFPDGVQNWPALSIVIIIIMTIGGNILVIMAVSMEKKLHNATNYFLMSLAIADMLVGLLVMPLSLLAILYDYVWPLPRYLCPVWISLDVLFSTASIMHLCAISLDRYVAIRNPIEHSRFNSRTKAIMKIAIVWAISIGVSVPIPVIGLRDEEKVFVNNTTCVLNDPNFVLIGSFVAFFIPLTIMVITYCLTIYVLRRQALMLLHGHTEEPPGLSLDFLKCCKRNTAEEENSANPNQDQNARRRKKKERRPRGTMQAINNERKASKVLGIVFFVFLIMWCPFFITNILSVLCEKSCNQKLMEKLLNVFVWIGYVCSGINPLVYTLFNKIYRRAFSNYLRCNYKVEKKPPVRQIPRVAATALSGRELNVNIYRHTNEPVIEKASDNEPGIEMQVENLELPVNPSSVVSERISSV

By Ki is commonly meant a measure of affinity in units of concentration, obtained from inhibition or displacement. A high value points to a looser hold on the target.

Regarding `COc1ccc(CC(=O)N(Cc2ccc(C)cc2)C2CCN(C)CC2)cc1` [N-(4-Methylbenzyl)-N-(1-methyl-4-piperidinyl)-4-methoxybenzeneacetamide], the inhibitory constant (Ki) was 2.9 nM.
